In PubChem BioAssay AID1963860 (Molecular Pharmacology Branch, DTP, NCI, 2024):
Values joined by “and” are separate entries in the source; they are usually repeats but may differ in a detail not shown here. Identical values can stand only once.

Test system: CN0375-F725-PDC KRAS spheroid viability
Assay: Anticancer human tumor CN0375-F725-PDC patient-derived colon carcinoma cell line growth inhibition [KRAS2]
Details: spheroids with HUVEC and MSC; for viability, T/C: stronger effect = lower value
Method in brief: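 Combination screen of spheroid viability in tumor-cell co-cultures with endothelial (HUVEC) and mesenchymal stem cell stroma. Each agent was tested in half-log dilutions, topping at clinical Cmax or at 10 microM without a known Cmax.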

[1] = curve of first compound, second compound 0.1 µM
[2] = curve of first compound, second compound 0.316 µM
[3] = curve of first compound, second compound 1 µM
[4] = curve of first compound, second compound 3.16 µM
[5] = curve of first compound, second compound 10 µM
[6] = second compound 0.1 µM, first compound 0.01 µM
[7] = second compound 0.1 µM, first compound 0.0316 µM
[8] = second compound 0.1 µM, first compound 0.1 µM
[9] = second compound 0.316 µM, first compound 0.01 µM
[10] = second compound 0.316 µM, first compound 0.0316 µM
[11] = second compound 0.316 µM, first compound 0.1 µM
[12] = second compound 1 µM, first compound 0.01 µM
[13] = second compound 1 µM, first compound 0.0316 µM
[14] = second compound 1 µM, first compound 0.1 µM
[15] = second compound 3.16 µM, first compound 0.01 µM
[16] = second compound 3.16 µM, first compound 0.0316 µM
[17] = second compound 3.16 µM, first compound 0.1 µM
[18] = second compound 10 µM, first compound 0.01 µM
[19] = second compound 10 µM, first compound 0.0316 µM
[20] = second compound 10 µM, first compound 0.1 µM
[21] = second compound 0.1 µM, first compound 0.316 µM
[22] = second compound 0.1 µM, first compound 1 µM
[23] = second compound 0.1 µM, first compound 3.16 µM
[24] = second compound 0.316 µM, first compound 0.316 µM
[25] = second compound 0.316 µM, first compound 1 µM
[26] = second compound 0.316 µM, first compound 3.16 µM
[27] = second compound 1 µM, first compound 0.316 µM
[28] = second compound 1 µM, first compound 1 µM
[29] = second compound 1 µM, first compound 3.16 µM
[30] = second compound 3.16 µM, first compound 0.316 µM
[31] = second compound 3.16 µM, first compound 1 µM
[32] = second compound 3.16 µM, first compound 3.16 µM
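Further: spheroids exposed to agents for 7 days.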

CN(C)C/C=C/C(=O)Nc1cc2c(Nc3ccc(F)c(Cl)c3)ncnc2cc1O[C@H]1CCOC1 + COc1cc2nc(C)nc(NC(C)c3cc(N)cc(C(F)(F)F)c3)c2cc1OC1CCOC1
IC50 [1]: > 0.1 µM | IC50 [2]: > 0.1 µM | IC50 [3]: > 0.1 µM | IC50 [4]: > 0.1 µM | IC50 [5]: > 0.1 µM | viability, T/C (second compound 0.1 µM, first compound 0.000316 µM): 102% | viability, T/C (second compound 0.1 µM, first compound 0.001 µM): 92.6% | viability, T/C (second compound 0.1 µM, first compound 0.00316 µM): 85.7% | viability, T/C [6]: 83.7% | viability, T/C [7]: 84.8% | viability, T/C [8]: 77.9% | viability, T/C (second compound 0.316 µM, first compound 0.000316 µM): 96% | viability, T/C (second compound 0.316 µM, first compound 0.001 µM): 92.5% | viability, T/C (second compound 0.316 µM, first compound 0.00316 µM): 86.4% | viability, T/C [9]: 85.7% | viability, T/C [10]: 78.1% | viability, T/C [11]: 79.3% | viability, T/C (second compound 1 µM, first compound 0.000316 µM): 91.9% | viability, T/C (second compound 1 µM, first compound 0.001 µM): 94.6% | viability, T/C (second compound 1 µM, first compound 0.00316 µM): 87.3% | viability, T/C [12]: 82.7% | viability, T/C [13]: 81.6% | viability, T/C [14]: 78.1% | viability, T/C (second compound 3.16 µM, first compound 0.000316 µM): 77.3% | viability, T/C (second compound 3.16 µM, first compound 0.001 µM): 71.5% | viability, T/C (second compound 3.16 µM, first compound 0.00316 µM): 71.8% | viability, T/C [15]: 66.1% | viability, T/C [16]: 66.5% | viability, T/C [17]: 65.8% | viability, T/C (second compound 10 µM, first compound 0.000316 µM): 65.5% | viability, T/C (second compound 10 µM, first compound 0.001 µM): 70.1% | viability, T/C (second compound 10 µM, first compound 0.00316 µM): 68.2% | viability, T/C [18]: 47% | viability, T/C [19]: 60.6% | viability, T/C [20]: 63.7%

CC(=O)OC12COC1CC(O)C1(C)C(=O)C(O)C3=C(C)C(OC(=O)C(O)C(NC(=O)OC(C)(C)C)c4ccccc4)CC(O)(C(OC(=O)c4ccccc4)C21)C3(C)C (stereo not drawn) + C=CC(=O)N1CCN(c2nc(OCC3CCCN3C)nc3c2CCN(c2cccc4cccc(C)c24)C3)CC1CC#N
IC50 (curve of first compound, second compound 0.0316 µM): > 3.16 µM | IC50 [1]: > 3.16 µM | IC50 [2]: > 3.16 µM | IC50 [3]: > 3.16 µM | IC50 [4]: > 3.16 µM | viability, T/C (second compound 0.0316 µM, first compound 0.01 µM): 99.3% | viability, T/C (second compound 0.0316 µM, first compound 0.0316 µM): 99.2% | viability, T/C (second compound 0.0316 µM, first compound 0.1 µM): 87.2% | viability, T/C (second compound 0.0316 µM, first compound 0.316 µM): 82.5% | viability, T/C (second compound 0.0316 µM, first compound 1 µM): 81.8% | viability, T/C (second compound 0.0316 µM, first compound 3.16 µM): 79.2% | viability, T/C [6]: 104% | viability, T/C [7]: 102% | viability, T/C [8]: 86.3% | viability, T/C [21]: 87% | viability, T/C [22]: 79.5% | viability, T/C [23]: 76.4% | viability, T/C [9]: 100% | viability, T/C [10]: 100% | viability, T/C [11]: 87.3% | viability, T/C [24]: 85.2% | viability, T/C [25]: 79.3% | viability, T/C [26]: 75.9% | viability, T/C [12]: 96.7% | viability, T/C [13]: 91.8% | viability, T/C [14]: 91.6% | viability, T/C [27]: 78.8% | viability, T/C [28]: 78.6% | viability, T/C [29]: 73.6% | viability, T/C [15]: 96.2% | viability, T/C [16]: 98.9% | viability, T/C [17]: 93.7% | viability, T/C [30]: 83.5% | viability, T/C [31]: 88.3% | viability, T/C [32]: 79%

CC(=O)OC12COC1CC(O)C1(C)C(=O)C(O)C3=C(C)C(OC(=O)C(O)C(NC(=O)OC(C)(C)C)c4ccccc4)CC(O)(C(OC(=O)c4ccccc4)C21)C3(C)C (stereo not drawn) + CNCc1ccccc1-c1csc(C(C)Nc2nc(C)nc3cc(OC)c(OC)cc23)c1
IC50 [1]: > 3.16 µM | IC50 [2]: > 3.16 µM | IC50 [3]: > 3.16 µM | IC50 [4]: < 0.01 µM | IC50 [5]: < 0.01 µM | viability, T/C [6]: 96.2% | viability, T/C [7]: 97.7% | viability, T/C [8]: 80.7% | viability, T/C [21]: 82.5% | viability, T/C [22]: 80.4% | viability, T/C [23]: 74.2% | viability, T/C [9]: 92.8% | viability, T/C [10]: 89.4% | viability, T/C [11]: 77.5% | viability, T/C [24]: 74.7% | viability, T/C [25]: 78.5% | viability, T/C [26]: 66.8% | viability, T/C [12]: 101% | viability, T/C [13]: 99.7% | viability, T/C [14]: 91.8% | viability, T/C [27]: 84% | viability, T/C [28]: 77.4% | viability, T/C [29]: 78% | viability, T/C [15]: 1.13% | viability, T/C [16]: 100% | viability, T/C [17]: 0.66% | viability, T/C [30]: 0.86% | viability, T/C [31]: 1.34% | viability, T/C [32]: 79.3% | viability, T/C [18]: 0.72% | viability, T/C [19]: 0.57% | viability, T/C [20]: 0.77% | viability, T/C (second compound 10 µM, first compound 0.316 µM): 0.24% | viability, T/C (second compound 10 µM, first compound 1 µM): 0.62% | viability, T/C (second compound 10 µM, first compound 3.16 µM): 0.25%

CC(C)NCC(C(=O)N1CCN(c2ncnc3c2C(C)CC3O)CC1)c1ccc(Cl)cc1 (stereo not drawn)
viability, T/C (compound 0.0316 µM): 103% [middle of 5 runs] | viability, T/C (compound 0.1 µM): 102% [middle of 5 runs] | viability, T/C (compound 0.316 µM): 96.5% [middle of 5 runs] | viability, T/C (compound 1 µM): 93.9% [middle of 5 runs] | viability, T/C (compound 3.16 µM): 91.8% [middle of 5 runs] | viability, T/C (compound 10 µM): 76.8% [middle of 5 runs] | IC50 (curve of compound): > 10 µM

CC1(C)CCC(CN2CCN(c3ccc(C(=O)NS(=O)(=O)c4ccc(NCC5CCOCC5)c([N+](=O)[O-])c4)c(Oc4cnc5[nH]ccc5c4)c3)CC2)=C(c2ccc(Cl)cc2)C1
viability, T/C (compound 0.0316 µM): 106% [middle of 5 runs] | viability, T/C (compound 0.1 µM): 102% [middle of 5 runs] | viability, T/C (compound 0.316 µM): 106% (3×) and 95.8% and 104% | viability, T/C (compound 1 µM): 104% [middle of 5 runs] | viability, T/C (compound 3.16 µM): 67.7% [middle of 5 runs]

COC(=O)c1ccc2c(C(=Nc3ccc(N(C)C(=O)CN4CCN(C)CC4)cc3)c3ccccc3)c(O)[nH]c2c1
viability, T/C (compound 0.0316 µM): 103% [middle of 5 runs] | viability, T/C (compound 0.1 µM): 96.6% [middle of 5 runs] | viability, T/C (compound 0.316 µM): 93.9% [middle of 5 runs] | viability, T/C (compound 1 µM): 91.9% [middle of 5 runs] | viability, T/C (compound 10 µM): 0.42% [middle of 5 runs] | IC50 (curve of compound): 3.14 µM [middle of 5 runs]
